{
  "source": "patent US5190783A",
  "about": "“Primary amide esters as low calorie fat mimetics” (Nabisco, Inc., priority 1991, dated 1993)",
  "test": "caloric availability by in vivo animal feeding study (body weight gain)",
  "set-up": "species or system Sprague-Dawley rats",
  "conditions": "rats, diet of 50% fort and 21% test compound, 14 days",
  "source_text": "This example illustrates how the novel fat mimetics of this invention are screened for caloric availability by a carefully controlled in vivo animal feeding study.\nAn experimental relationship between total calories ingested and animal body weight gain is established by monitoring the body weight gain associated with consumption of a nutritionally balanced diet containing varying concentrations of a reference substance such as corn oil which has a known caloric availability. Correlations between total calories ingested and body weight gain are excellent (r=0.99).\nCaloric availability of a test material is evaluated by substituting a specific weight of the test material for the reference substance and observing the body weight gain. The gain in body weight is equated to a total number of calories using the correlation previously established for the reference data. The estimated number of calories ingested are divided by the weight of test material to give the apparent calories per gram for the test material. Generally speaking, in these bioavailability studies, the degree of perianal pelt soiling correlates with reduced bioavailability.\nThe test animals are six-week-old male Sprague-Dawley rats obtained from the Portage, Michigan facility of the Charles River Laboratories, Inc. After acclimation for 15 days, the test duration is 14 days. […]",
  "data": [
    {"smiles": "CCCCCCCC/C=C\\CCCCCCCC(=O)NCC(COC(=O)CCCCCCC/C=C\\CCCCCCCC)OC(=O)CCCCCCC/C=C\\CCCCCCCC", "note": "(stereo not shown) [Example 2, 2,3-s(oleyoyloxy)propyl oleamide]", "values": [
      {"measurement": "calories upon being metabolized (apparent calories per gram)", "result": "about 3.3 kcal/gram"}
    ]}
  ]
}
